# Measurements as given in PubChem BioAssay (NCI).
#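 GI50 = concentration required for 50% inhibition of growth. TGI: concentration producing complete growth inhibition.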
# What was measured:
# Assay in all cases: NCI tumour cell line growth inhibition, 384-well format
# ACHN renal = system: ACHN renal
# HT29 colon = system: HT29 colon
# MDA-MB-468 breast = system: MDA-MB-468 breast
# SW-620 colon = system: SW-620 colon
# UO-31 renal = system: UO-31 renal
# UACC-257 melanoma = system: UACC-257 melanoma
# 786-0 renal = system: 786-0 renal
# MALME-3M melanoma = system: MALME-3M melanoma
# SN12C renal = system: SN12C renal
# RPMI-8226 leukemia = system: RPMI-8226 leukemia
# OVCAR-3 ovarian = system: OVCAR-3 ovarian
# DU-145 prostate = system: DU-145 prostate
# IGROV1 ovarian = system: IGROV1 ovarian
# MOLT-4 leukemia = system: MOLT-4 leukemia
# BT-549 breast = system: BT-549 breast
# HCT-15 colon = system: HCT-15 colon
# MDA-MB-435 melanoma = system: MDA-MB-435 melanoma
# SF-295 CNS = system: SF-295 CNS
# OVCAR-8 ovarian = system: OVCAR-8 ovarian
# NCI-H460 NSCLC = system: NCI-H460 NSCLC
# SF-539 CNS = system: SF-539 CNS
# HS 578T breast = system: HS 578T breast
# MCF7 breast = system: MCF7 breast
# OVCAR-5 ovarian = system: OVCAR-5 ovarian
# MDA-MB-231 breast = system: MDA-MB-231 breast
# UACC-62 melanoma = system: UACC-62 melanoma
# SNB-19 CNS = system: SNB-19 CNS
# SF-268 CNS = system: SF-268 CNS
# A498 renal = system: A498 renal
# EKVX NSCLC = system: EKVX NSCLC
# PC-3 prostate = system: PC-3 prostate
# SNB-75 CNS = system: SNB-75 CNS
# HL-60(TB) leukemia = system: HL-60(TB) leukemia
# OVCAR-4 ovarian = system: OVCAR-4 ovarian
# M14 melanoma = system: M14 melanoma
# T-47D breast = system: T-47D breast
# SK-OV-3 ovarian = system: SK-OV-3 ovarian
# HCC-2998 colon = system: HCC-2998 colon
# SK-MEL-28 melanoma = system: SK-MEL-28 melanoma
# K-562 leukemia = system: K-562 leukemia
# SK-MEL-5 melanoma = system: SK-MEL-5 melanoma
# NCI-H322M lung = system: NCI-H322M lung
# LOX IMVI melanoma = system: LOX IMVI melanoma
# COLO 205 colon = system: COLO 205 colon
# RXF 393 renal = system: RXF 393 renal
# TK-10 renal = system: TK-10 renal
# KM12 colon = system: KM12 colon
# NCI-H226 lung = system: NCI-H226 lung
# NCI-H23 lung = system: NCI-H23 lung
# A549 NSCLC = system: A549 NSCLC
# U251 glioblastoma = system: U251 glioblastoma
# NCI/ADR-RES ovarian = system: NCI/ADR-RES ovarian
# NCI-H522 lung = system: NCI-H522 lung
# CCRF-CEM leukemia = system: CCRF-CEM leukemia
# HOP-62 NSCLC = system: HOP-62 NSCLC
# HOP-92 NSCLC = system: HOP-92 NSCLC
# SR leukemia = system: SR leukemia
# CAKI-1 renal = system: CAKI-1 renal
smiles,measurement,setting,value
CCC[C@H](N[C@H]1CCc2cc(F)cc(F)c2C1)C(=O)Nc1cn(C(C)(C)CNCC(C)(C)C)cn1,GI50,ACHN renal,19.9 µM
same,TGI,ACHN renal,69.4 µM
same,GI50,HT29 colon,9.66 µM
same,TGI,HT29 colon,22.7 µM
same,GI50,MDA-MB-468 breast,0.603 µM
same,TGI,MDA-MB-468 breast,6.55 µM
same,GI50,SW-620 colon,21.4 µM
same,TGI,SW-620 colon,42.2 µM
same,GI50,UO-31 renal,14.9 µM
same,TGI,UO-31 renal,32.4 µM
same,GI50,UACC-257 melanoma,5.51 µM
same,TGI,UACC-257 melanoma,21 µM
same,GI50,786-0 renal,14.5 µM
same,TGI,786-0 renal,29.9 µM
same,GI50,MALME-3M melanoma,2.64 µM
same,TGI,MALME-3M melanoma,14.4 µM
same,GI50,SN12C renal,33.1 µM
same,TGI,SN12C renal,> 100 µM
same,GI50,RPMI-8226 leukemia,3.03 µM
same,TGI,RPMI-8226 leukemia,14.1 µM
same,GI50,OVCAR-3 ovarian,11.1 µM
same,TGI,OVCAR-3 ovarian,23.5 µM
same,GI50,DU-145 prostate,20.6 µM
same,TGI,DU-145 prostate,74.6 µM
same,GI50,IGROV1 ovarian,25.9 µM
same,TGI,IGROV1 ovarian,> 100 µM
same,GI50,MOLT-4 leukemia,3.46 µM
same,TGI,MOLT-4 leukemia,15 µM
same,GI50,BT-549 breast,6.44 µM
same,TGI,BT-549 breast,26.2 µM
same,GI50,HCT-15 colon,12 µM
same,TGI,HCT-15 colon,25.6 µM
same,GI50,MDA-MB-435 melanoma,20.7 µM
same,TGI,MDA-MB-435 melanoma,61.2 µM
same,GI50,SF-295 CNS,14.6 µM
same,TGI,SF-295 CNS,30.2 µM
same,GI50,OVCAR-8 ovarian,22.3 µM
same,TGI,OVCAR-8 ovarian,> 100 µM
same,GI50,NCI-H460 NSCLC,15.1 µM
same,TGI,NCI-H460 NSCLC,29.4 µM
same,GI50,SF-539 CNS,18 µM
same,TGI,SF-539 CNS,32.1 µM
same,GI50,HS 578T breast,13 µM
same,TGI,HS 578T breast,31.7 µM
same,GI50,MCF7 breast,6.74 µM
same,TGI,MCF7 breast,23.1 µM
same,GI50,OVCAR-5 ovarian,21.4 µM
same,TGI,OVCAR-5 ovarian,53.9 µM
same,GI50,MDA-MB-231 breast,12.2 µM
same,TGI,MDA-MB-231 breast,32.1 µM
same,GI50,UACC-62 melanoma,14.1 µM
same,TGI,UACC-62 melanoma,27.4 µM
same,GI50,SNB-19 CNS,21.9 µM
same,TGI,SNB-19 CNS,67.3 µM
same,GI50,SF-268 CNS,19.8 µM
same,TGI,SF-268 CNS,50.8 µM
same,GI50,A498 renal,11.7 µM
same,TGI,A498 renal,26.6 µM
same,GI50,EKVX NSCLC,19.2 µM
same,TGI,EKVX NSCLC,71.8 µM
same,GI50,PC-3 prostate,6.56 µM
same,TGI,PC-3 prostate,21.8 µM
same,GI50,SNB-75 CNS,19.4 µM
same,TGI,SNB-75 CNS,71 µM
same,GI50,HL-60(TB) leukemia,10.7 µM
same,TGI,HL-60(TB) leukemia,22.6 µM
same,GI50,OVCAR-4 ovarian,13.8 µM
same,TGI,OVCAR-4 ovarian,61.9 µM
same,GI50,M14 melanoma,14.1 µM
same,TGI,M14 melanoma,27.9 µM
same,GI50,T-47D breast,6.21 µM
same,TGI,T-47D breast,40 µM
same,GI50,SK-OV-3 ovarian,15.8 µM
same,TGI,SK-OV-3 ovarian,33.2 µM
same,GI50,HCC-2998 colon,7.48 µM
same,TGI,HCC-2998 colon,21.6 µM
same,GI50,SK-MEL-28 melanoma,14.7 µM
same,TGI,SK-MEL-28 melanoma,29.3 µM
same,GI50,K-562 leukemia,5.58 µM
same,TGI,K-562 leukemia,17 µM
same,GI50,SK-MEL-5 melanoma,11.4 µM
same,TGI,SK-MEL-5 melanoma,23.6 µM
same,GI50,NCI-H322M lung,26.3 µM
same,TGI,NCI-H322M lung,92.6 µM
same,GI50,LOX IMVI melanoma,17.3 µM
same,TGI,LOX IMVI melanoma,31.3 µM
same,GI50,COLO 205 colon,21.3 µM
same,TGI,COLO 205 colon,97.7 µM
same,GI50,RXF 393 renal,11.1 µM
same,TGI,RXF 393 renal,27.1 µM
same,GI50,TK-10 renal,21.4 µM
same,TGI,TK-10 renal,90 µM
same,GI50,KM12 colon,16.1 µM
same,TGI,KM12 colon,35.3 µM
same,GI50,NCI-H226 lung,15.6 µM
same,TGI,NCI-H226 lung,40.4 µM
same,GI50,NCI-H23 lung,12.1 µM
same,TGI,NCI-H23 lung,29.6 µM
same,GI50,A549 NSCLC,22.2 µM
same,TGI,A549 NSCLC,> 100 µM
same,GI50,U251 glioblastoma,17.3 µM
same,TGI,U251 glioblastoma,33.1 µM
same,GI50,NCI/ADR-RES ovarian,11.1 µM
same,TGI,NCI/ADR-RES ovarian,27.1 µM
same,GI50,NCI-H522 lung,18.4 µM
same,TGI,NCI-H522 lung,48.4 µM
same,GI50,CCRF-CEM leukemia,6.62 µM
same,TGI,CCRF-CEM leukemia,20 µM
same,GI50,HOP-62 NSCLC,17.7 µM
same,TGI,HOP-62 NSCLC,51.2 µM
same,GI50,HOP-92 NSCLC,11.5 µM
same,TGI,HOP-92 NSCLC,26.2 µM
same,GI50,SR leukemia,3.71 µM
same,TGI,SR leukemia,15.4 µM
same,GI50,CAKI-1 renal,14.2 µM
same,TGI,CAKI-1 renal,31.6 µM
